Tests used:
hERG channel = hERG channel (Homo sapiens (Human), UniProt Q12809); assay: hERG channel inhibition, whole cell patch clamp in HEK293 cells; assay type: cell-based
Description: The assay was performed on hERG channel stably expressed in HEK293 cells. The cells were cultured at 37° C. in a humidified CO2 incubator in the growth medium consisting of DMEM, 10% fetal bovine serum and antibiotics. Prior to the assay, the cells were seeded onto a 12 mm PDL-coated glass coverslip and cultured in a 35 mm Petri dish. After 16 to 40 hr culture, the cover slip was transferred into the chamber of OctaFlow perfusion system (ALA Instrument) and under a constant flow of extracellular solution (140 mM NaCl, 4 mM KCl, 1 mM MgCl2, 2 mM CaCl2, 10 mM HEPES, 10 mM D-glucose, pH 7.35, osmolarity 290). Whole cell patch clamping was performed with a glass micropipette filled with intracellular solution (120 mM KCl, 1.75 mM MgCl2, 5.4 mM CaCl2, 10 mM HEPES, 10 mM EGTA, and 4 mM ATP-K2, PH 7.2, osmolarity 310). Giga-seal was maintained during the test. The voltage control and current measurement were carried out using Axon amplifier 700B, Digidata 1440A and CLAMPEX10 software (Molecular Devices). Whole-cell hERG currents were recorded following the Petroski protocol: the cell was held at −80 mV, and the voltage step jumped from −80 to 30 mV and stay for 2 sec with a 20 ms prepulse at −40 mV. After depolarization, the voltage was decreased to −40 mV and stay for 2 sec, and returned back to −80 mV. Test compound was applied by quartz capillary tubes tip (200 μm inner diameter), and the flow rate was controlled at 2-3 ml/min with OctaFlow perfusion system. Different concentrations of the compound were applied to the cells for 5 min and the hERG current was measured three times before, during and after compound treatment. The data were analyzed using Clampfit 10 software (Molecular Devices) to generate IC50 values.

[1] = tested on: haloperidol-induced catalepsy; assay: Haloperidol-Induced Catalepsy (HIC) Model; assay type: in vivo; conditions: rats
Text: The Haloperidol-induced Catalepsy (HIC) model detects antipsychotic activity and the action of NR2B selective antagonists (Steece-Collier et al. Exp. Neurol. 163: 239, 2000) and was based on methods described by Chermat and Simon (J. Pharmacol., 6, 493-496, 1975). The capacity to induce catalepsy serves as an index of the liability of a test substance to induce extrapyramidal side-effects, in particular Parkinsonism. Antagonism of antipsychotic-induced catalepsy can thus serve to detect anti-Parkinson potential.
Rats were injected with haloperidol (1 mg/kg i.p.) and were examined for catalepsy at 30 minute intervals up to 360 minutes. Presence (+) or absence (−) of catalepsy was assessed by three procedures: 1) imposed crossing of the ipsilateral fore- and hind-limbs; 2) placing the animal in the Buddha position; 3) the tilting board, an automatic device that, 5 seconds after positioning the rat, displaces the rat from a horizontal to vertical position and back while it clings to a wire grid with its front paws. Akinesia and catalepsy were assessed depending on whether or not the animal moves before (akinesia) or during operation of the board (catalepsy).
The 4 scores were cumulated over time to give a global catalepsy score per animal. Six rats were studied per group. The test was performed blind (test substances versus vehicle). Test substances were evaluated at 1 or more doses, administered typically using 0.5% dimethylsulfoxide, 4% hydroxypropyl-b-cyclodextrin water as a vehicle p.o. 15 minutes before haloperidol (i.e. 45 minutes before the first measurement), and compared with a vehicle control group.
Amphetamine (8 mg/kg p.o.), administered 60 minutes before the test (i.e. 90 minutes before the first measurement), was used as reference substance. Data with the test substances were analyzed by comparing treated groups with vehicle control using Kruskal-Wallis Test followed by Mann-Whitney U tests at each time and for cumulated score. Data with the reference substance were analyzed using Mann-Whitney U tests.

NMDA receptor = assay: [3H] MK-801 radioligand binding, rat brain membranes; conditions: 2 nM [3H] MK-801
Description: (§1) This example describes NMDA receptor binding assays using two different radioligands, [^3H] […] An established binding assay using the non-selective NMDA receptor ligand [^3H] […] The binding assay method using the NR2B selective receptor ligand [^3H] […] This assay serves as a selective measure of NR2B receptor binding activity in native rat brain receptors. Briefly, the brains of Male Wistar rats were homogenized (Polytron) before centrifugation at 40,000×g for 15 minutes at 4° C. After 2 washes, the final pellet was homogenized and stored at −80° C. The protein concentration was determined by Bradford assay.
(§2) Test compounds were solubilized at 10 mM in DMSO. Then the dilutions were performed with a constant solvent concentration (1% DMSO) in the assay.
(§3) After incubation for 4.5 h at room temperature, the assays were filtered on GF/B filters pretreated with 0.3% (v/v) PEI with a Brandel system for [^3H] […] The experiment was performed in duplicate (n=2).

NR2B receptor = NR2B receptor (Rattus norvegicus (Rat), UniProt P35439+Q00960); assay: [3H] (E)-N1-(2-methoxybenzyl)-cinnamidine radioligand binding, rat brain membranes
Description: as §1
[^3H] […] Thus, using [^3H]
as §2, §3

[2] = tested on: 6 Hz electrically induced seizures; assay: 6 Hz Seizure Test; assay type: in vivo; conditions: for forelimb seizure score, change vs vehicle control: mice
Description: Mice were administered a rectangular current (44 mA, rectangular pulse: 0.2 ms pulse width, 3 s duration, 6 Hz) via corneal electrodes connected to a constant current shock generator (Ugo Basile: type 7801). The results for the number of seizures as reflected by forelimb clonus were recorded during the first minute following current administration. Forelimb clonus was scored as absent (0), mild (1) and strong (2). 15 mice were studied per group. The test was performed partially blind (test substance vs vehicle). […] Quantitative data (scores) with the test substance was analyzed by comparing treated groups with vehicle control using Kruskall-Wallis test followed by Mann-Whitney U tests.

[3] = tested on: KCl-induced cortical spreading depression; assay: Cortical Spreading Depression (CSD), aura phase of migraine model; assay type: in vivo; conditions: rats
Description: The cortical spreading depression model is utilized to investigate whether treatment with compounds of the present invention affect electrophysiological and hemodynamic events in a rat model of migraine.
Rats were anesthetized with 5% isoflurane (in 70% N2O and 30% O2; flow 300 ml/min) and placed in a stereotactic frame. […] The rectal temperature was maintained at 37.0±1.0° C. with a homeothermic blanket system. The skin was opened by a medial incision and retracted laterally. Three burr holes were drilled under saline cooling over the right hemisphere at the following coordinates (mm from bregma): (1) posterior 4.5, lateral, 2.0 (occipital cortex): KCl application site; (2) posterior 0.5, lateral 2.0 (parietal cortex): LDF recording site; (3) anterior 2, lateral 2 (frontal cortex): DC potential recording site. A laser-Doppler flow probe (Oxyflow, Oxford Optronics, UK) to monitor CBF and an invasive Ag/AgCl electrode for measuring direct current (DC) potential shifts were placed in the parietal and frontal cortex burr holes on the intact dura and in the cortex, respectively. The laser-Doppler flow probe was positioned in an area free of large pial and dural vessels to minimize a large-vessel contribution to the signal. For the DC-potential measurement, a reference electrode was fixed in the neck. Dura overlying the occipital cortex was gently removed and care was taken to avoid bleeding. After surgical preparation, the cortex was allowed to recover for 15 minutes under saline irrigation. A cotton ball (2 mm diameter) soaked with 1M KCl was placed on the pial surface and kept moist by placing 5 μl of KCl solution every 15 minutes. Test compound or vehicle was administered ten (10) minutes prior to CSD initiation. […] The number of KCl-induced CSDs was counted for 2 hours. The CBF and DC-potentials were monitored continuously starting from 5 minutes before KCl exposure.
Test compound E1-1.2 was administered as a mesylate salt (mpk based on molecular weight of the mesylate salt).
The data was collected in Windaq acquisition software (Dataq Instruments, USA) at 20 kHz. The raw data was analyzed in Clampfit program (Axon Instruments, USA). The signals were low pass filtered (cut off range 5-10000 Hz) that CSD episodes in DC and CBF could be confirmed. The following parameters were analyzed: i) the number, duration and amplitude of DC-potentials, and ii) the number and amplitude of CBF events.
Doses were given as milligram per kilogram (mpk). […] Bars represent mean±Standard Error of Mean (SEM), and differences were considered to be statistically significant at the P<0.05 level (n=8, * different from vehicle group). Statistical analysis was performed using StatsDirect statistical software. Differences between groups were analyzed by using 1-way ANOVA and Dunnett's post hoc test.

[4] = E1-1.2 at various doses, MK-801 1.25 mg/kg

Sequence of NR2B receptor (Q00960 27-1482, other chains not shown): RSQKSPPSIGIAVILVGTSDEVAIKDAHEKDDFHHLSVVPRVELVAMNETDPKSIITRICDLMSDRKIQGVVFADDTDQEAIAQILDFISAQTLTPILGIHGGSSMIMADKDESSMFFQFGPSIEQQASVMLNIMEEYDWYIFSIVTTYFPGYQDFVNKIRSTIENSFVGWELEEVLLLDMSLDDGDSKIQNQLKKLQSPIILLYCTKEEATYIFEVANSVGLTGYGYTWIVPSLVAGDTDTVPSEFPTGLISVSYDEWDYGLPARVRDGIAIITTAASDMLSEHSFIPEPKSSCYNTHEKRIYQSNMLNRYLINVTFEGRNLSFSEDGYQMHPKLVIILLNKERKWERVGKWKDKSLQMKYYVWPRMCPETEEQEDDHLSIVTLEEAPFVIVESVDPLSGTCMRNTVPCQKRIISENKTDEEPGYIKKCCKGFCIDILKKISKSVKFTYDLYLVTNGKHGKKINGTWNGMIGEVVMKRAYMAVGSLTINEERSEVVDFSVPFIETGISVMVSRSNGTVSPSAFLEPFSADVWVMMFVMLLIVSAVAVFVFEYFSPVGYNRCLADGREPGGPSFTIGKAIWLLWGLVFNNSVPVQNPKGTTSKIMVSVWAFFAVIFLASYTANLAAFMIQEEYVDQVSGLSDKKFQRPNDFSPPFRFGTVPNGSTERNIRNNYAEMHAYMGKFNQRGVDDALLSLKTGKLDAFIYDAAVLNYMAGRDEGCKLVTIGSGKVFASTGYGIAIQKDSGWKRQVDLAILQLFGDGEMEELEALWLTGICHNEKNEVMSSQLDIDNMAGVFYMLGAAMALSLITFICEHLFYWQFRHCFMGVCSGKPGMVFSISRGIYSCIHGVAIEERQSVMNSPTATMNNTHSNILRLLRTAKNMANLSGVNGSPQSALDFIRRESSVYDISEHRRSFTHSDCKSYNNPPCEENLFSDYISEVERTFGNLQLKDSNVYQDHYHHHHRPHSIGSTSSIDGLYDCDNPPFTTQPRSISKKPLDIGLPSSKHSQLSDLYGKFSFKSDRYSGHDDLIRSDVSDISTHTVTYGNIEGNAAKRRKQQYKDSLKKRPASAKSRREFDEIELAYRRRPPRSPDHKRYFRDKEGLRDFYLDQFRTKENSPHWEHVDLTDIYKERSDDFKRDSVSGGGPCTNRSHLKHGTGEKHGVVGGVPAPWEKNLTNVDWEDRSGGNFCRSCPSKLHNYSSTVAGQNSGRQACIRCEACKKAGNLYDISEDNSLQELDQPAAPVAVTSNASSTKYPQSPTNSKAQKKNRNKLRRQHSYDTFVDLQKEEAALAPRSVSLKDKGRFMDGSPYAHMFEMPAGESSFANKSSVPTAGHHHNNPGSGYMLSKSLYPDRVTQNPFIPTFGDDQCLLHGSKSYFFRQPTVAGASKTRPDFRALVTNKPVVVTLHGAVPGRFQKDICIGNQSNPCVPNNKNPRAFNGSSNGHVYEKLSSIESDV
Sequence of hERG channel (Q12809 whole entry): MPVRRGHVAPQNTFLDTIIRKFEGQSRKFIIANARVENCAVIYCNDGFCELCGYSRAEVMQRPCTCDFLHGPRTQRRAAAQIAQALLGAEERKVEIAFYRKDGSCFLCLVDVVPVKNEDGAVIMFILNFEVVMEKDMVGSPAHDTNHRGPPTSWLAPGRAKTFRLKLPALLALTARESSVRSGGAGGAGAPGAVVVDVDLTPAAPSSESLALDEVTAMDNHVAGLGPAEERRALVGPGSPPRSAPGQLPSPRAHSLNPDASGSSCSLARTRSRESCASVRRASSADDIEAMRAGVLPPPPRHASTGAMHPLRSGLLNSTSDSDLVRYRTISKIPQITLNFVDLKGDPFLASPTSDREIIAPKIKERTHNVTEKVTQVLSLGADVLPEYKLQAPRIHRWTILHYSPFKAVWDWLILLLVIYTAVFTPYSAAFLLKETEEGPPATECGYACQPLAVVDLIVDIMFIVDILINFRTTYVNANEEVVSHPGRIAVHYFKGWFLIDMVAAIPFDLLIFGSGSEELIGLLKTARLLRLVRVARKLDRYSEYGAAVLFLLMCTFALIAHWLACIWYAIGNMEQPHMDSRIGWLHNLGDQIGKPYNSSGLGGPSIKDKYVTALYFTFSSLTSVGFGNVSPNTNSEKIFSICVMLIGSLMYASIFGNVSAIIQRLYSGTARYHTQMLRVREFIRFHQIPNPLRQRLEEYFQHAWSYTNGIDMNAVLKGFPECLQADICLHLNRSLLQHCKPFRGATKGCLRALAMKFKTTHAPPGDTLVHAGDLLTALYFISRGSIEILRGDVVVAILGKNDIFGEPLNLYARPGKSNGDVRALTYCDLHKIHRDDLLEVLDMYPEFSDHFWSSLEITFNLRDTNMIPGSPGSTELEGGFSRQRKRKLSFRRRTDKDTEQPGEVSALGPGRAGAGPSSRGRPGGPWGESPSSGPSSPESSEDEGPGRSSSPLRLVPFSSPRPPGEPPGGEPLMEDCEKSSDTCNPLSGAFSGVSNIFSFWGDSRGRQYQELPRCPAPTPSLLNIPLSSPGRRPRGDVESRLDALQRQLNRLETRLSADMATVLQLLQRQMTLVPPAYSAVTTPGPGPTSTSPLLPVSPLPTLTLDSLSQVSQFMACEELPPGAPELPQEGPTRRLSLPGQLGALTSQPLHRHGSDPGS

Cc1ccc(COC(=O)N2CC[C@H](CNc3nccn4cnnc34)C(F)(F)C2)cc1 [Compound E1-1.2, (+)-R-4-methylbenzyl 4-(([1,2,4]triazolo[4,3-a]pyrazin-8-ylamino)methyl)-3,3-difluoropiperidine-1-carboxylate]
hERG @ 10 μM (%) (hERG channel; 10 μM): 17%
IC50 (hERG channel; HEK293, whole cell patch clamp): 40 µM
cumulated score of catalepsy over 360 mins ([1]; 1 mg/kg p.o.): 17.0
cumulated score of catalepsy over 360 mins ([1]; 3 mg/kg p.o.): 15.8
cumulated score of catalepsy over 360 mins ([1]; p.o., dose not printed in the sentence (other doses 1 and 3 mg/kg)): 2.0
partial effect on [3H] MK-801 binding (NMDA receptor): 40%
displacement of [3H] (E)-N1-(2-methoxybenzyl)-cinnamidine at the NR2B receptor high affinity site (NR2B receptor; rat brain membranes): 96%
Ki (NR2B receptor; read-out: Ki at the NR2B receptor high affinity site): 0.00523 µM
number of mice with Straub tail, change vs vehicle control ([2]; 10 mg/kg p.o., NS): −13%
number of mice with Straub tail, change vs vehicle control ([2]; 30 mg/kg p.o.): −40%
forelimb seizure score, change vs vehicle control ([2]; 10 mg/kg p.o. 30 minutes before the test): −50%
forelimb seizure score, change vs vehicle control ([2]; 30 mg/kg p.o. 30 minutes before the test): −70%
magnitude of CBF vs vehicle [3]: unchanged
number of DC potentials vs vehicle ([3]; 3 mpk, 10 mpk and 30 mpk, mesylate salt): significantly decreased
number of CBF events vs vehicle ([3]; E1-1.2 at 10 mg/kg, MK-801 at 1.25 mg/kg): decreased
amplitude of DC potentials vs vehicle [3, 4]: not statistically different
duration of DC potentials vs vehicle [3, 4]: not statistically different

— patent US10294230B2, “3,3-difluoropiperidine carbamate heterocyclic compounds as NR2B NMDA receptor antagonists” (Rugen Holdings (Cayman) Limited, priority 2015, dated 2019)
